Patent US12428370B2, “Haloallylamine dual amine oxidase inhibitors” (Syntara Limited, priority 2020, dated 2025)
Where a name gives a salt, the structure may show the parent alone.

Columns and labels:
[1] = target: T1, Rat Adipose Tissue SSAO/VAP-1 (Rattus norvegicus, UniProt O08590); experiment: Rat adipose tissue SSAO/VAP-1 activity after oral administration; type: in vivo, Sprague Dawley rats; settings: single oral dose 0.6 mg/kg, Sprague Dawley rat adipose tissue, FIG. 2
T1 construct: Adipose tissue was homogenized in ice-cold HES buffer; from tissue; host or cells: gonadal fat of Sprague Dawley rats (homogenate supernatant)
T1 sequence (O08590 1-763): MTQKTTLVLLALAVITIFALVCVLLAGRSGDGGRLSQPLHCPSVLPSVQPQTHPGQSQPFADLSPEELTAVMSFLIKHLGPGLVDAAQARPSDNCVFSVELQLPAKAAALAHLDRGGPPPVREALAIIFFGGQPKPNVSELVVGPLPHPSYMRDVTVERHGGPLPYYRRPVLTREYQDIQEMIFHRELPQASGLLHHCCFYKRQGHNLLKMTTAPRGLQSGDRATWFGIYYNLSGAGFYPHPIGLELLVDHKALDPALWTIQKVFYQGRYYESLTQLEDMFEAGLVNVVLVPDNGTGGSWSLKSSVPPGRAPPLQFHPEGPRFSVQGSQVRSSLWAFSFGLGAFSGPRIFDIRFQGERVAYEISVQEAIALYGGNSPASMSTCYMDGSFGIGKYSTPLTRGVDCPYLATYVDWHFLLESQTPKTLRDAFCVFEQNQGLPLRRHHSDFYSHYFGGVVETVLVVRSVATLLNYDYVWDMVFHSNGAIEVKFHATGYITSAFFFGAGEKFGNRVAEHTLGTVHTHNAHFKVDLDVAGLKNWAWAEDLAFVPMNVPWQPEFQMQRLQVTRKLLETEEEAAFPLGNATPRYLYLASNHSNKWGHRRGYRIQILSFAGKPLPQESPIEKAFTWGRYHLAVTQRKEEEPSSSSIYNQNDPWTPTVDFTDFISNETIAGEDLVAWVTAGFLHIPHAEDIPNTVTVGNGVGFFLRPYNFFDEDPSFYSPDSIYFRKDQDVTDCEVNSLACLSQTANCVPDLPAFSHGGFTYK
Protocol: Sprague Dawley rats were orally administered the compound under study and sacrificed at various time points and gonadal fat and brain tissue collected.
Adipose tissue was homogenized in ice-cold HES buffer (20 mM HEPES, 1 mM EDTA, sucrose 250 mM, proteases and phosphatases inhibitor, pH 7.4). Homogenate was then centrifuged at 2000 rpm for 5 minutes at 4° C. and the resultant supernatant portion (minus the lipid top layer) used for assay. SSAO/VAP-1 activity was determined by using a non-specific MAO inhibitor (e.g. pargyline) to establish the high signal and a mixture of non-specific MAO inhibitor and an SSAO/VAP-1 inhibitor (e.g. semicarbazide) to determine the low signal.
Activity of the treated samples was analyzed using the fluorometric method described in EXAMPLE 9 for SSAO/VAP-1 activity and EXAMPLE 10 for MAO-B.

[2] = target: T2, Muscle and Heart Tissue MAO-A (Mus musculus, UniProt Q64133); experiment: Mouse muscle and heart tissue MAO-A activity after oral administration; type: in vivo
T2 construct: Skeletal muscle was pulverized in liquid nitrogen and then suspended in ice-cold HEPES buffered media; from tissue; host or cells: skeletal muscle and heart of C57BL/6J and mdx mice (mitochondrial extract)
T2 sequence (Q64133 1-526): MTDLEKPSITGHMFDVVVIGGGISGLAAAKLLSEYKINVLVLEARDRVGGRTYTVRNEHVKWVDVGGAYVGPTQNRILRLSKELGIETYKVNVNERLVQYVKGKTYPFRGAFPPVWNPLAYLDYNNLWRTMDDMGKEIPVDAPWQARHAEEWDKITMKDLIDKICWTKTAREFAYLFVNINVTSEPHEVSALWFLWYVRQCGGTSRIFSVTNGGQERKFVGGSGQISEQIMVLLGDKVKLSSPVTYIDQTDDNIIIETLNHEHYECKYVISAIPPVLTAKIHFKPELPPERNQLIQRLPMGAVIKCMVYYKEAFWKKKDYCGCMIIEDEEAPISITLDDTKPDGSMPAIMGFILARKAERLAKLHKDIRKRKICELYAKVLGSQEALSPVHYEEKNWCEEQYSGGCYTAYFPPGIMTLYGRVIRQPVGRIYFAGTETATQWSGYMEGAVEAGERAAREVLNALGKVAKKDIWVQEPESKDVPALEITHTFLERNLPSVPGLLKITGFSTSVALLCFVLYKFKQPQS
Protocol: Mice were orally administered the compound under study and sacrificed at various time points and abdominal fat, muscle and heart tissue collected.
Skeletal muscle was pulverized in liquid nitrogen and then suspended in ice-cold HEPES buffered media (20 mM HEPES, 0.8% w/v free-fatty acid bovine serum albumin (BSA), 75 mM sucrose, 10 mM EDTA, 215 mM D-mannitol, pH 7.4). Homogenized and then centrifuged at 2,500 rpm for 10 minutes at 4° C. Supernatant transferred and centrifuged at 10,000 rpm for 8 minutes. Supernatant discarded and the resultant pellet containing the mitochondrial extract re-suspended in 0.1 M sodium phosphate buffer solution (1:3 ratio).
Heart muscle was washed with PBS solution three times over ice. Homogenate and extract was then prepared as described for the skeletal muscle.
MAO-A activity was determined by using a selective MAO-B inhibitor mofegiline (at 30 nM) to establish the high signal and a mixture of specific MAO-A inhibitor (clorgyline) and mofegiline (at 30 nM) to determine the low signal.
Activity of the treated samples was analyzed using the fluorometric method described in EXAMPLE 9 for SSAO/VAP-1 activity, EXAMPLE 10 for MAO-B and EXAMPLE 11 for MAO-A activity (FIG. 8 and FIG. 9).

[3] = test system: Salmonella typhimurium strains TA98, TA100 and Escherichia. coli WP2 uvrA pKM101; experiment: Miniaturized bacterial reverse mutagenicity screening assay; type: cell-based; settings: 7.81-1000 μg/well, presence and absence of S9 metabolic activation
Protocol: Compound 1 was tested for mutagenic potential in a miniaturized reverse mutation assay using Salmonella typhimurium strains TA98, TA100 and Escherichia. coli WP2 uvrA pKM101 in the presence and absence of a metabolic activation system. The test article was formulated in dimethylsulfoxide (DMSO) at nominal concentration of 50 mg/mL and serial dilutions were made from this stock solution. Final dosing concentrations were 1000, 500, 250, 125, 62.5, 31.3, 15.6 and 7.81 μg/well for the test article. Metabolic activation was provided using an S9 mix containing 10% v/v Aroclor-1254-induced rat liver S9 (Regensys System reagents, Moltox, Boone, NC).

SMILES | duration of inhibition of SSAO/VAP-1 enzyme activity [1] | heart and muscle MAO-A activity ([2]; C57BL/6J mice, single oral dose, 4 and 24 hours after administration, FIG. 9) | muscle MAO-A activity ([2]; mdx mice (C57BL/10ScSn-Dmdmdx/J), oral, FIG. 11) | mutagenic potential [3]
NC/C(=C\F)C1Cc2ccccc2O1 (single isomer, unassigned; (-)) [PXS-5131, (−)-(E)-2-(2,3-Dihydrobenzofuran-2-Yl)-3-Fluoroprop-2-En-1-Amine Hydrochloride] | greater than 24 hours |  |  | 
N#Cc1ccc(OC/C(=C/F)CN)cc1 [Compound 1, (E)-4-((2-(aminomethyl)-3-fluoroallyl)oxy) benzonitrile] |  | no inhibitory effect | no inhibitory effect | did not induce a response indicative of mutagenic potential
